The values below come from ChEMBL document CHEMBL1158109, “Cytotoxic cis-fused bicyclic sesquiterpenoids from Jatropha neopauciflora” (J Nat Prod, 2006).

Broadly, the IC50 is the concentration at which inhibition is half-maximal. Read a low IC50 as higher potency.

The test system of assay [1] is K562. Kind of assay: Cytotoxicity against human K-562 cells after 48 hrs by SRB assay. The settings on record: K562, 48 h. Type of assay: functional, cell-based. On the technique in general: In SRB staining, fixed cells bind dye roughly in proportion to their protein.
For assay [2], the system named is U-251. Kind of assay: Cytotoxicity against human U251 cells after 48 hrs by SRB assay. The format is functional, cell-based. The following applies: U-251, 48 h.

Turning to `C=C(C)[C@@H]1CC[C@@]2(C)[C@H]1[C@H]1CCC3[C@@]4(C)CC[C@H](O)C(C)(C)[C@@H]4CC[C@@]3(C)[C@]1(C)C[C@@H]2O` (stereo not given in full) [CALENDULADIOL], the IC50 came to 31.4 µM in assay [1] and 48.4 µM in assay [2].
In assay [2], `C=C(C)[C@@H]1CC[C@@]2(C)[C@H]1[C@H]1CC[C@@H]3[C@@]4(C)CC[C@H](OC(=O)/C=C/c5ccc(O)cc5)C(C)(C)[C@@H]4CC[C@@]3(C)[C@]1(C)C[C@@H]2O` registered an IC50 of 41 µM.
For `COc1cccc2c1C(=O)c1c(O)c3c(c(O)c1C2=O)C[C@@](O)(C(=O)CO)C[C@@H]3O[C@H]1C[C@H](N)[C@H](O)[C@H](C)O1` [DOXORUBICIN], the results for the IC50 in assay [1] and in assay [2] were 0.28 µM and 0.32 µM, respectively.
